These are literature values, as cited in US20240139480A1, “RETENTIVE DEVICES FOR GASTROINTESTINAL TRACT” (Teva Pharmaceutical Industries Ltd., priority 2021, published 2024).

Structures are written as SMILES.

For this data set the following is noted: given as ester prodrug; extensive intestinal esterase degradation.

For `CC(C)OC(=O)OCOP(=O)(CO[C@H](C)Cn1cnc2c(N)ncnc21)OCOC(=O)OC(C)C` [Tenofovir disoproxil], the bioavailability entry is given as “about 30%”.
